Laboratory results published in US5444073A, “Method for treating memory impairment” (H. Lundbeck A/S, priority 1991, dated 1995).

experiment: Catalepsy test (rat on a vertical wire mesh, s.c.); conditions: Cataleptic Activity, maximum within the first 6 hours
Protocol: Test compound is given s.c. in different doses. The rat (170-240 g) is placed on a vertical wire mesh (mesh-diameter 12 mm). The rat is considered cataleptic if it remains immobile for more than 15 sec. The maximum number of rats showing catalepsy within the first 6 hours is recorded for each dose group. The results are recorded in fractions and an ED50 value is calculated by means of log-probit analysis.

| Molecule | ED50(s.c.) [µmol/kg] |
| --- | --- |
| 5-Chloro-1-(4-fluorophenyl)-3-[1-[2-(2-imidazolidinon-1-yl)ethyl]-1,2,3,6-tetrahydropyridin-4-yl]-5-trifluoromethyl-1H-indole [Comp. B] | 2.2 |
| 5-Chloro-1-(4-fluorophenyl)-3-[4-[2-(2-imidazolidinon-1-yl)ethyl]-12,3,6-tetrahydropyridin-4-yl]-5-trifluoromethyl-1H-indole [Comp. C] | 4.5 |
| CN1CCN(CCN2CCC(c3cn(-c4ccc(F)cc4)c4ccc(Cl)cc34)CC2)C1=O.O=C(O)/C=C/C(=O)O [Comp. No 3, 5-chloro-1-(4-fluorophenyl)-3-[1-[2-(3-methyl-2-imidazolidinon-1-yl)ethyl]4-piperidyl]-1H-indole, fumarate] | 31 |
| O=C1NCCN1CCN1CC=C(c2cn(-c3ccc(F)cc3)c3ccc(C(F)(F)F)cc23)CC1 [Comp. A, 1-(4-Fluorophenyl)-3-[1-[2-(2-imidazolidinon-1-yl)ethyl]-1,2,3,6-tetrahydropyridin-4-yl]-5-trifluoromethyl-1H-indole] | 0.49 |
| O=C(O)/C=C/C(=O)O.O=C1CCCN1CCN1CCC(c2cn(-c3ccc(F)cc3)c3ccc(Cl)cc23)CC1 [Comp. No 4, 5-chloro-1-(4-fluorophenyl)-3-[1-[2-(2-pyrrolidinon-1-yl)ethyl]-4-piperidyl]-1H-indole, fumarate] | 23 |
